According to publication PMC9311059, “P‐Glycoprotein and Breast Cancer Resistance Protein Transporter Inhibition by Cyclosporine and Quinidine on the Pharmacokinetics of Oral Rimegepant in Healthy Subjects” (Clinical Pharmacology in Drug Development, 2022):
Where “and” joins values, the source holds several entries; their conditions need not be identical. Equal values may be shown once.

Columns and labels:
[1] = Part 1: pharmacokinetics of rimegepant 75 mg ODT alone or coadministered with cyclosporine 200 mg, 2-way crossover
Method: This phase 1, open‐label, randomized, single‐dose, 2‐way crossover, 2‐part, drug‐drug interaction study was conducted at a single center (Syneos Health, Québec, Canada). Subjects were screened within 28 days preceding administration of study medication. In part 1, fasted subjects were randomly assigned to a single dose of rimegepant 75 mg ODT or a single dose of rimegepant 75 mg ODT coadministered with cyclosporine 200 mg (2 × 100‐mg capsules). […] Following the completion of part 1, an interim PK analysis and review of data were performed. Part 2 was to be conducted only if the rimegepant AUC from time 0 to infinity (AUC0‐inf) ratio of geometric means in part 1 was increased by >50% when coadministered with cyclosporine. In part 2, fasted subjects were randomly assigned to a single dose of rimegepant 75 mg ODT or a single dose of rimegepant 75 mg ODT coadministered with quinidine 600 mg (2 × 300‐mg tablets).
In part 1, subjects received 1 of the following treatments under fasting conditions: 1 oral dose of rimegepant 75 mg ODT (Catalent Pharma Solutions, Swindon, UK) or 1 oral dose of rimegepant 75 mg ODT coadministered with cyclosporine 200 mg (Novartis Pharmaceuticals Canada Inc., Dorval, Quebec, Canada). In part 2, subjects received 1 of the following treatments under fasting conditions: 1 oral dose of rimegepant 75 mg ODT alone or 1 oral dose of rimegepant 75 mg ODT coadministered with quinidine 600 mg (Sandoz Inc., West Princeton, New Jersey). In parts 1 and 2, the interval between treatments could not exceed 2 minutes.
For each treatment, subjects were confined from the morning of day −1 until after the 24‐hour postdose blood draw on day 2. Subjects returned for all subsequent blood draws. No food was allowed from at least 10 hours before dosing until at least 4 hours after dosing. Meals were standardized and similar in composition between periods. Except for water given with cyclosporine and quinidine, no fluids were allowed from 1 hour before dosing until 1 hour after dosing. Water was provided ad libitum at all other times. […] When appropriate, subjects were accompanied by a staff member while walking.
In each period, 20 blood samples for PK assessment were collected at the following time points: before dosing; 5, 10, 20, 30, 40, and 50 minutes after dosing; and 1, 1.5, 2, 2.5, 3, 4, 5, 6, 8, 12, 24 (day 2), 48 (day 3), and 72 (day 4) hours after dosing. […] Plasma samples were assayed for rimegepant using ultra‐performance liquid chromatography with tandem mass spectrometry detection (LC‐MS/MS). The quantifiable range was 10 to 5000 ng/mL. Plasma samples containing human ethylenediaminetetraacetic acid (EDTA) K2 plasma as an anticoagulant were processed using automated protein precipitation before LC‐MS/MS analysis. The internal standard was rimegepant‐^13C2d4. The validation was performed using an API 5000 LC/MS/MS system with Analyst software, version 1.6.3 (SCIEX, Framingham, Massachusetts). The pump flow was isocratic, with a flow rate set at 0.600 mL/min. The column was an Acquity UPLC BEH C18, 50×2.1 mm, 1.7 μm (Waters Corporation, Framingham, Massachusetts), which was maintained at a temperature of 60°C and contained Milli‐Q type water/acetonitrile with ammonium acetate and acetic acid. The mass‐to‐charge ratios monitored for rimegepant were 535.4 for the precursor ion and 256.1 for the product ion, whereas for the internal standard, they were 541.4 for the precursor ion and 256 for the product ion. […] Incurred sample reanalysis was carried out on ≈10% of randomly selected samples.
The effects of cyclosporine (part 1) or quinidine (part 2) on the single‐dose PK of rimegepant were evaluated using general linear model procedures in SAS (SAS Institute, Cary, North Carolina).

[2] = test system: organic anion transporting polypeptide 1B1; design: method as in ref 7 = [7]; PMID 32058712; doi:10.1021/acs.jmedchem.9b01810; 7 Dubowchik GM , Conway CM , Xin AW . Blocking the CGRP pathway for acute and preventive treatment of migraine: the evolution of success . J Med Chem . 2020; 63 ( 13 ): 6600 ‐ 6623 . 32058712 10.1021; conditions: in vitro; cited from earlier work
[3] = test system: organic anion transporting polypeptide 1B3; design: method as in ref 7 = [7]; PMID 32058712; doi:10.1021/acs.jmedchem.9b01810; 7 Dubowchik GM , Conway CM , Xin AW . Blocking the CGRP pathway for acute and preventive treatment of migraine: the evolution of success . J Med Chem . 2020; 63 ( 13 ): 6600 ‐ 6623 . 32058712 10.1021; conditions: in vitro; cited from earlier work
[4] = Safety assessment (adverse events, ECG, vital signs, S-STS) in parts 1 and 2
Method: Safety was assessed using adverse events (AEs) that occurred from signing informed consent through 4 days after the last study drug administration, physical examination, body measurements, and the S‐STS. Safety was also assessed through vital signs (blood pressure, heart rate, respiratory rate, oral temperature), and electrocardiography. In part 2, cardiac telemetry was recorded continuously from ≈10 hours before dosing until 6 hours after dosing in each period (8 hours after dosing in subjects receiving quinidine with an increased QT interval at the 6‐hour assessment).
Safety laboratory assessments included a QuantiFERON‐TB test (Hilden, Germany); pregnancy tests (urine and serum); drug, alcohol, and cotinine screen; hematology; biochemistry; coagulation (in case of abnormal liver function tests); serology; and urinalysis.
Safety data were summarized but not subjected to inferential analysis.

P‐gp = test system: P‐gp; design: method as in ref 7 = [7]; PMID 32058712; doi:10.1021/acs.jmedchem.9b01810; 7 Dubowchik GM , Conway CM , Xin AW . Blocking the CGRP pathway for acute and preventive treatment of migraine: the evolution of success . J Med Chem . 2020; 63 ( 13 ): 6600 ‐ 6623 . 32058712 10.1021; conditions: in vitro; cited from earlier work
[5] = by cyclosporine 200 mg, single dose rimegepant 75 mg ODT, vs rimegepant alone
[6] = coadministration with cyclosporine 200 mg, rimegepant 75 mg
[7] = strong P‐gp inhibitors (cyclosporine, quinidine), parts 1 and 2
[8] = parts 1 and 2, rimegepant alone or coadministered

## N[C@@H]1c2cccnc2[C@H](OC(=O)N2CCC(n3c(=O)[nH]c4ncccc43)CC2)CC[C@H]1c1cccc(F)c1F [Rimegepant]
[1]; [5]
  increase in rimegepant AUC0‐inf: 60.1% and 60%
  increase in rimegepant Cmax: 41%
[1]; [6]
  rimegepant AUC0‐inf geometric mean ratio (90% CI) versus rimegepant alone: 1.6 (1.49‐1.72)
  rimegepant Cmax geometric mean ratio (90% CI) versus rimegepant alone: 1.41 (1.27‐1.57)
[1]; human, in vivo, po, 75 mg
  Tmax: 2 h
[1]; human, plasma, po
  Tmax: 2.5 h
[1]; human, plasma, po, 75 mg
  Tmax: 1.99 h
  half-life: 7.59 h
[1]; human, plasma, po, 75 mg, AUC0‐inf, arithmetic mean (percent coefficient of variation), part 1, rimegepant ODT 75 mg alone, single oral dose, N 15
  AUC: 4270 ng·h/mL
[1]; human, plasma, po, 75 mg, AUC0‐inf, geometric least squares mean, part 1, rimegepant 75 mg ODT alone, single oral dose, fasted, N = 15
  AUC: 4110 ng·h/mL
[1]; human, plasma, po, 75 mg, AUC0‐t, arithmetic mean (percent coefficient of variation), part 1, rimegepant ODT 75 mg alone, single oral dose, N 15
  AUC: 4250 ng·h/mL
[1]; human, plasma, po, 75 mg, AUC0‐t, geometric least squares mean, part 1, rimegepant 75 mg ODT alone, single oral dose, fasted, N = 15
  AUC: 4090 ng·h/mL
[1]; human, plasma, po, 75 mg, arithmetic mean (percent coefficient of variation), part 1, rimegepant ODT 75 mg alone, single oral dose, N 15
  Cmax: 862 ng/mL
[1]; human, plasma, po, 75 mg, geometric least squares mean, part 1, rimegepant 75 mg ODT alone, single oral dose, fasted, N = 15
  Cmax: 824 ng/mL
[1]; part 1, rimegepant ODT 75 mg alone, single oral dose, N 15
  CL/F, arithmetic mean (percent coefficient of variation): 19.26 (31.84) L/h
[1]; part 1, rimegepant with cyclosporine vs rimegepant alone
  difference in geometric mean t1/2el between treatments: ≤ 5%
[1]; [7]
  increase in rimegepant exposure by strong P‐gp inhibitors, lower bound: > 50%
  increase in rimegepant exposure by strong P‐gp inhibitors, upper bound: < 2 fold
[2]
  substrate of organic anion transporting polypeptide 1B1: not a substrate
[3]
  substrate of organic anion transporting polypeptide 1B3: not a substrate
[4]; part 2, rimegepant group: sinus tachycardia, rimegepant‐quinidine group: false‐positive SARS‐CoV‐2 test
  subjects discontinued due to AEs: 1 subjects
[4]; parts 1 and 2
  nausea (TEAE), number of subjects: 1 subjects
[4]; [8]
  serious AEs: No serious AEs were reported
  severity of TEAEs: mild or moderate
[4]; single oral dose rimegepant 75 mg ODT alone or coadministered with cyclosporine or quinidine, parts 1 and 2
  tolerability: well tolerated and safe
P‐gp
  substrate of P‐gp transporter: substrate
